Laboratory results published in ChEMBL document CHEMBL1212731, “Nonclonal emergence of colistin-resistant Klebsiella pneumoniae isolates from blood samples in South Korea” (2010).
In brackets after ≈: the same amount, converted by molar mass.

Assays:
Type in all cases: functional
Klebsiella pneumoniae [1] = experiment: Antimicrobial activity against colistin-susceptible Klebsiella pneumoniae isolated from bacteremia patient assessed as percentage of resistant isolates by broth microdilution method
Klebsiella pneumoniae [2] = experiment: Antimicrobial activity against colistin-resistant Klebsiella pneumoniae isolated from bacteremia patient by broth microdilution method
Klebsiella pneumoniae [3] = experiment: Antimicrobial activity against colistin-resistant Klebsiella pneumoniae isolated from bacteremia patient assessed as percentage of resistant isolates by broth microdilution method
Klebsiella pneumoniae [4] = experiment: Antimicrobial activity against Klebsiella pneumoniae isolated from bacteremia patient assessed as percentage of resistant isolates by broth microdilution method

| Molecule | Activity (Klebsiella pneumoniae [1]) [%] | MIC50 (Klebsiella pneumoniae [2]) [µg/mL] | MIC90 (Klebsiella pneumoniae [2]) [µg/mL] | Activity (Klebsiella pneumoniae [3]) [%] | Activity (Klebsiella pneumoniae [4]) [%] |
| --- | --- | --- | --- | --- | --- |
| CC1(C)S[C@@H]2[C@H](NC(=O)[C@H](N)c3ccccc3)C(=O)N2[C@H]1C(=O)O [AMPICILLIN] | 92.2 | 64 (≈ 183 µM) | > 64 | 80 | 91.4 |
| C[C@H]1[C@H](NC(=O)/C(=N\OC(C)(C)C(=O)O)c2csc(N)n2)C(=O)N1S(=O)(=O)O [AZTREONAM] | 17.5 | ≤ 0.06 | > 64 | 6.7 | 16.7 |
| CO/N=C(\C(=O)N[C@@H]1C(=O)N2C(C(=O)O)=C(COC(C)=O)CS[C@H]12)c1csc(N)n1 [CEFOTAXIME] | 15.1 | ≤ 0.12 | 128 (≈ 281 µM) | 6.7 | 14.5 |
| CC(C)(O/N=C(\C(=O)N[C@@H]1C(=O)N2C(C(=O)[O-])=C(C[n+]3ccccc3)CS[C@H]12)c1csc(N)n1)C(=O)O [CEFTAZIDIME] | 18.5 | 0.25 (≈ 0.457 µM) | > 64 | 6.7 | 17.7 |
| O=C(O)c1cn(C2CC2)c2cc(N3CCNCC3)c(F)cc2c1=O [CIPROFLOXACIN] | 17.5 | ≤ 0.06 | 64 (≈ 193 µM) | 20 | 17.7 |
| C[C@@H](O)[C@H]1C(=O)N2C(C(=O)O)=C(SCCNC=N)C[C@H]12 [IMIPENEM ANHYDROUS] | 0.5 | 0.25 (≈ 0.835 µM) | 1 (≈ 3.34 µM) | – | 0.5 |
| COLISTIN | – | 1 | 4 | 100 | 6.8 |
| GENTAMICIN | 17 | 0.5 | > 64 | 6.7 | 16.3 |
